Experimental data reported in US9670242B2, “Tetracyclic anthraquinone derivatives” (Tianjin Hemay Bio-Tech Co., Ltd, priority 2012, dated 2017).

Assays:
MCF-7 cells = test: MCF-7 cell growth inhibition test (SRB assay); type: cell-based, human; conditions: 73 h
Description: MCF-7 Cell Growth Inhibition Test (SRB Assay)
(§1) II. Reagents and Consumable Materials
Culture medium: 90% EMEM+10% FBS; Pancreatin (0.25% (w/v) solution was formulated with PBS, 0.53 mM of EDTA was added in the formulation); PBS; 96-well culture plate.
(§2) 1. A plate (10 cm) of cells in logarithmic growth phase that were normally cultured was collected;
(§3) 2. The culture solution was sucked out. The plate was washed with 5 mL of PBS once or twice;
3. 1.5 mL of 0.25% pancreatin was added to the plate to infiltrate the cells;
4. The pancreatin was sucked out. The culture plate was placed in an incubator. Digestion was carried out for about 3 min at 37° C.;
5. 4 mL of complete culture solution was added to the culture plate to stop the digestion. The cells were carefully scoured with micropipette (1 mL) to give a uniform single cell suspension. The suspension was implanted into a 96-well cell culture plate by 10000 cells/100 μL per well. The culture plate was incubated overnight under 5% CO2 at 37° C. In day 2, 100 μL of culture solution comprising a compound was added in each well. The plate was further incubated for 73 h under 5% CO2 at 37° C.;
6. The culture solution was sucked out. 100 uL of TCA fixed cells which were diluted to 10% were added to each well. The plate was kept in a refrigerator for 1 h at 4° C.
7. TCA stationary liquid was sucked out. Each well was washed with 150 μL of ddH2O five times;
8. After the stationary liquid was cleansed, the plate was dried in the air at the room temperature;
9. 60 μL of SRB staining solution was added in each well. The well was stained for 15 min at the room temperature;
10. The SRB staining solution was sucked out. Each well was washed with 150 μL of 1% glacial acetic acid five times;
11. After the SRB staining solution was cleansed, the plate was dried in the air at the room temperature;
12. 100 μL of 10 mM Tris was added in each well. The plate was vibrated to dissolve out SRB;
13. OD values were determined at 570 nM.
(§4) IV. Results and Treatments
1. Calculation of Relative Inhibition Ratio The inhibition ratio of a compound on cell growth=(PC−n)/(PC−NC)×100% […]

A375 cells = test: A375 cell growth inhibition test (MTT assay); type: cell-based, human; conditions: 72 h
Description: A375 Cell Growth Inhibition Test (MTT Assay)
as §1
Culture medium: 90% DMEM+10% FBS (fetal calf serum); Pancreatin (0.25% (w/v) solution was formulated with PBS, 0.53 mM of EDTA was added in the formulation); PBS; 96-well culture plate.
as §2, §3
(§5) 3. PBS was sucked out. 1.5 mL of 0.25% pancreatin was added to the plate to infiltrate the cells for 1 min;
(§6) 4. The culture plate was placed in an incubator. Digestion was carried out for about 5 min at 37° C.;
(§7) 5. 3 mL of complete culture solution was added to the culture plate to stop the digestion. The cells were carefully scoured with micropipette (1 ml) to give a uniform cell suspension. The suspension was implanted into a 96-well cell culture disc by 3000 cells/100 μL per well. The culture plate was incubated overnight under 5% CO2 at 37° C. In day 2, 100 μL of culture solution comprising a compound was added in each well. The plate was further incubated for 72 h under 5% CO2 at 37° C.;
(§8) 6. The culture solution was sucked out;
(§9) 7. 100 μL of serum-free culture solution containing 0.5 mg/mL MTT was added in each well. The plate was incubated for 3 h;
(§10) 8. The culture solution was carefully sucked out;
(§11) 9. 100 μL of DMSO was added in each well and vibrated to dissolve;
(§12) 10. OD values were determined at 490 nM.
as §4
(§13) 1. Calculation of Relative Inhibition Ratio The inhibition ratio of a compound on cell growth=(PC−n)/(PC−NC)×100%
(§14) PC: OD values of cells after normal growth in control wells without a compound;
(§15) n: OD values of cells after growth in test wells with a compound;
(§16) NC: Background OD values of blank wells without a compound and cells.

BxPc-3 cells = test: BxPc-3 cell growth inhibition test (MTT assay); type: cell-based, human; conditions: growth inhibition at 2000 nM, 70 h
Procedure, shortened: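 BxPC-3 human pancreatic cancer cells at 5000 per well in RPMI-1640 with 10% FBS were treated with compound from day 2 for 70 h at 37 °C, 5% CO2. Viability was measured by MTT (0.5 mg/mL, 3 h) with DMSO solubilisation and OD 490 nm. Inhibition ratio = (PC−n)/(PC−NC)×100%.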

A431 cells = test: A431 cell growth inhibition test (MTT assay); type: cell-based, human; conditions: 72 h
Description: A431 Cell Growth Inhibition Test (MTT Assay)
as §1
Culture medium: 45% DMEM+45% F12+10% FBS (fetal calf serum); Pancreatin (0.25% (w/v) solution was formulated with PBS, 0.53 mM of EDTA was added in the formulation); PBS; 96-well culture plate.
as §2, §3, §5, §6
as §7, with “mL)” for “ml)”, “2500” for “3000”
as §8, §9, §10, §11, §12, §4, §13, §14, §15, §16

B16 cells = test: B16 cell growth inhibition test (MTT assay); type: cell-based, mouse; conditions: 72 h
Description: B16 Cell Growth Inhibition Test (MTT Assay)
as §1
(§17) Culture medium: 90% RPMI1640+10% FBS (fetal calf serum); Pancreatin (0.25% (w/v) solution was formulated with PBS, 0.53 mM of EDTA was added in the formulation); PBS; 96-well culture plate.
as §2, §3, §5
(§18) 4. The culture plate was placed in an incubator. Digestion was carried out for about 1 min at 37° C.;
as §7, with “mL)” for “ml)”, “2500” for “3000”
as §8
7. 100 μl of serum-free culture solution containing 0.5 mg/mL MTT was added in each well. The plate was incubated for 3 h;
as §10, §11, §12, §4, §13, §14, §15, §16

786-O cells = test: 786-O cell growth inhibition test (MTT assay); type: cell-based, human; conditions: 72 h
Description: 786-O Cell Growth Inhibition Test (MTT Assay)
as §1, §17, §2, §3, §5, §18
as §7, with “mL)” for “ml)”, “2000” for “3000”
as §8, §9, §10, §11, §12, §4, §13, §14, §15, §16

SMILES | IC50 (MCF-7 cells) | IC50 (A375 cells) | Inhibition Ratio (%) (BxPc-3 cells) | IC50 (A431 cells) | IC50 (B16 cells) | IC50 (786-O cells)
CC(=O)O.COc1cccc2c1C(=O)c1c(O)c3c(c(O)c1C2=O)CC(O)(C(=O)COC(=O)CCC(=O)NCCCN1CCN(C)CC1)CC3O[C@H]1C[C@H](n2cccc2)[C@H](O)[C@H](C)O1 (stereo partly drawn) [Example 81, 10-((3′-(pyrrol-1-yll)-2′,3′,6′-trideoxy-alphal-l-lyxo-hexylpyranyl)oxy)-7,8,9,10-tetrahydro-6,8,11-trihydroxy-13-oxo-14-(4-((3-(4-methylpiperazin-1-yl)propyl)amino)-4-oxo-butyrato)-1-methoxy-5,12-naphthalenedione acetate] | 225 nM | 67 nM | 80.7% | 42 nM |  | 
COc1cccc2c1C(=O)c1c(O)c3c(c(O)c1C2=O)CC(O)(C(=O)COC(=O)CCC(=O)NCCOCCO)CC3OC1CC(n2cccc2)C(O)C(C)O1 (stereo not drawn) [Example 62] |  |  | 82.5% |  | 3 nM | 110 nM
COc1cccc2c1C(=O)c1c(O)c3c(c(O)c1C2=O)CC(O)(C(=O)COC(=O)CCC(=O)O)CC3OC1CC(n2cccc2)C(O)C(C)O1 (stereo not drawn) [Compound A, 3′-pyrrolyldoxorubicin-14-oxo-succinic acid monoester, reference compound] | 785 nM | 207 nM |  | 68 nM | 32 nM | 180 nM
